Measurements published in PubChem BioAssay (NCI).
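Compound exposure: 48 hours, 5 concentrations, 96-well plates. Abbreviation: GI50, concentration required for 50% inhibition of growth. TGI: concentration producing complete growth inhibition.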

Tests used:
Experiment in all cases: inhibition of tumour cell growth, NCI panel, 48 h
ACHN renal = test system: ACHN renal
SW-620 colon = test system: SW-620 colon
PC-3 prostate = test system: PC-3 prostate
NCI-H522 lung = test system: NCI-H522 lung
A498 renal = test system: A498 renal
IGROV1 ovarian = test system: IGROV1 ovarian
MDA-MB-231 breast = test system: MDA-MB-231 breast
SK-MEL-2 melanoma = test system: SK-MEL-2 melanoma
HOP-92 NSCLC = test system: HOP-92 NSCLC
KM12 colon = test system: KM12 colon
HCT-116 colon = test system: HCT-116 colon
M14 melanoma = test system: M14 melanoma
COLO 205 colon = test system: COLO 205 colon
HL-60(TB) leukemia = test system: HL-60(TB) leukemia
TK-10 renal = test system: TK-10 renal
CAKI-1 renal = test system: CAKI-1 renal
BT-549 breast = test system: BT-549 breast
SR leukemia = test system: SR leukemia
LOX IMVI melanoma = test system: LOX IMVI melanoma
SK-OV-3 ovarian = test system: SK-OV-3 ovarian
OVCAR-5 ovarian = test system: OVCAR-5 ovarian
HS 578T breast = test system: HS 578T breast
SF-295 CNS = test system: SF-295 CNS
OVCAR-8 ovarian = test system: OVCAR-8 ovarian
MALME-3M melanoma = test system: MALME-3M melanoma
RPMI-8226 leukemia = test system: RPMI-8226 leukemia
MCF7 breast = test system: MCF7 breast
HT29 colon = test system: HT29 colon
RXF 393 renal = test system: RXF 393 renal
UACC-62 melanoma = test system: UACC-62 melanoma
OVCAR-4 ovarian = test system: OVCAR-4 ovarian
SK-MEL-5 melanoma = test system: SK-MEL-5 melanoma
HOP-62 NSCLC = test system: HOP-62 NSCLC
NCI-H23 lung = test system: NCI-H23 lung
SF-539 CNS = test system: SF-539 CNS
OVCAR-3 ovarian = test system: OVCAR-3 ovarian
786-0 renal = test system: 786-0 renal
HCC-2998 colon = test system: HCC-2998 colon
MDA-MB-435 = test system: MDA-MB-435
SNB-19 CNS = test system: SNB-19 CNS
U251 CNS = test system: U251 CNS
SNB-75 CNS = test system: SNB-75 CNS
MOLT-4 leukemia = test system: MOLT-4 leukemia
A549 NSCLC = test system: A549 NSCLC
UO-31 renal = test system: UO-31 renal
NCI/ADR-RES ovarian = test system: NCI/ADR-RES ovarian
SF-268 CNS = test system: SF-268 CNS
NCI-H226 lung = test system: NCI-H226 lung
HCT-15 colon = test system: HCT-15 colon
T-47D breast = test system: T-47D breast
CCRF-CEM leukemia = test system: CCRF-CEM leukemia
UACC-257 melanoma = test system: UACC-257 melanoma
DU-145 prostate = test system: DU-145 prostate
SN12C renal = test system: SN12C renal
K-562 leukemia = test system: K-562 leukemia
EKVX NSCLC = test system: EKVX NSCLC
NCI-H460 lung = test system: NCI-H460 lung
SK-MEL-28 melanoma = test system: SK-MEL-28 melanoma
MDA-N = test system: MDA-N

Compound: Cc1ccc(NC(=O)CSc2nnc3n(Cc4ccccc4)c(=O)c4c(C)c(C(N)=O)sc4n23)cc1
- GI50 (ACHN renal): 19.9 µM
- TGI (ACHN renal): 51 µM
- GI50 (SW-620 colon): > 100 µM
- TGI (SW-620 colon): > 100 µM
- GI50 (PC-3 prostate): > 100 µM
- TGI (PC-3 prostate): > 100 µM
- GI50 (NCI-H522 lung): 3.85 µM
- TGI (NCI-H522 lung): > 100 µM
- GI50 (A498 renal): 13.2 µM
- TGI (A498 renal): 63.1 µM
- GI50 (IGROV1 ovarian): 37 µM
- TGI (IGROV1 ovarian): > 100 µM
- GI50 (MDA-MB-231 breast): 3.44 µM
- TGI (MDA-MB-231 breast): 58.8 µM
- GI50 (SK-MEL-2 melanoma): 16 µM
- TGI (SK-MEL-2 melanoma): 43.3 µM
- GI50 (HOP-92 NSCLC): 2.57 µM
- TGI (HOP-92 NSCLC): 12.2 µM
- GI50 (KM12 colon): > 100 µM
- TGI (KM12 colon): > 100 µM
- GI50 (HCT-116 colon): 3.5 µM
- TGI (HCT-116 colon): > 100 µM
- GI50 (M14 melanoma): 26 µM
- TGI (M14 melanoma): > 100 µM
- GI50 (COLO 205 colon): 78 µM
- TGI (COLO 205 colon): > 100 µM
- GI50 (HL-60(TB) leukemia): > 100 µM
- TGI (HL-60(TB) leukemia): > 100 µM
- GI50 (TK-10 renal): 13.7 µM
- TGI (TK-10 renal): 34 µM
- GI50 (CAKI-1 renal): > 100 µM
- TGI (CAKI-1 renal): > 100 µM
- GI50 (BT-549 breast): 12.7 µM
- TGI (BT-549 breast): 72 µM
- GI50 (SR leukemia): 16.4 µM
- TGI (SR leukemia): 34.2 µM
- GI50 (LOX IMVI melanoma): > 100 µM
- TGI (LOX IMVI melanoma): > 100 µM
- GI50 (SK-OV-3 ovarian): 4.28 µM
- TGI (SK-OV-3 ovarian): 65.4 µM
- GI50 (OVCAR-5 ovarian): 64.7 µM
- TGI (OVCAR-5 ovarian): > 100 µM
- GI50 (HS 578T breast): 5.22 µM
- TGI (HS 578T breast): 77.6 µM
- GI50 (SF-295 CNS): 26.7 µM
- TGI (SF-295 CNS): 76.6 µM
- GI50 (OVCAR-8 ovarian): > 100 µM
- TGI (OVCAR-8 ovarian): > 100 µM
- GI50 (MALME-3M melanoma): > 100 µM
- TGI (MALME-3M melanoma): > 100 µM
- GI50 (RPMI-8226 leukemia): > 100 µM
- TGI (RPMI-8226 leukemia): > 100 µM
- GI50 (MCF7 breast): > 100 µM
- TGI (MCF7 breast): > 100 µM
- GI50 (HT29 colon): > 100 µM
- TGI (HT29 colon): > 100 µM
- GI50 (RXF 393 renal): 6.88 µM
- TGI (RXF 393 renal): 39 µM
- GI50 (UACC-62 melanoma): > 100 µM
- TGI (UACC-62 melanoma): > 100 µM
- GI50 (OVCAR-4 ovarian): > 100 µM
- TGI (OVCAR-4 ovarian): > 100 µM
- GI50 (SK-MEL-5 melanoma): > 100 µM
- TGI (SK-MEL-5 melanoma): > 100 µM
- GI50 (HOP-62 NSCLC): 21 µM
- TGI (HOP-62 NSCLC): 56 µM
- GI50 (NCI-H23 lung): 17.3 µM
- TGI (NCI-H23 lung): > 100 µM
- GI50 (SF-539 CNS): 21.7 µM
- TGI (SF-539 CNS): > 100 µM
- GI50 (OVCAR-3 ovarian): > 100 µM
- TGI (OVCAR-3 ovarian): > 100 µM
- GI50 (786-0 renal): 10 µM
- TGI (786-0 renal): 49.7 µM
- GI50 (HCC-2998 colon): > 100 µM
- TGI (HCC-2998 colon): > 100 µM
- GI50 (MDA-MB-435): > 100 µM
- TGI (MDA-MB-435): > 100 µM
- GI50 (SNB-19 CNS): 14.6 µM
- TGI (SNB-19 CNS): > 100 µM
- GI50 (U251 CNS): 5.17 µM
- TGI (U251 CNS): 52.9 µM
- GI50 (SNB-75 CNS): 5.72 µM
- TGI (SNB-75 CNS): 23.8 µM
- GI50 (MOLT-4 leukemia): 27.3 µM
- TGI (MOLT-4 leukemia): 81.5 µM
- GI50 (A549 NSCLC): > 100 µM
- TGI (A549 NSCLC): > 100 µM
- GI50 (UO-31 renal): > 100 µM
- TGI (UO-31 renal): > 100 µM
- GI50 (NCI/ADR-RES ovarian): > 100 µM
- TGI (NCI/ADR-RES ovarian): > 100 µM
- GI50 (SF-268 CNS): 14.4 µM
- TGI (SF-268 CNS): 86.8 µM
- GI50 (NCI-H226 lung): 27.2 µM
- TGI (NCI-H226 lung): > 100 µM
- GI50 (HCT-15 colon): > 100 µM
- TGI (HCT-15 colon): > 100 µM
- GI50 (T-47D breast): 8.12 µM
- TGI (T-47D breast): > 100 µM
- GI50 (CCRF-CEM leukemia): 20.1 µM
- TGI (CCRF-CEM leukemia): 46.1 µM
- GI50 (UACC-257 melanoma): > 100 µM
- TGI (UACC-257 melanoma): > 100 µM
- GI50 (DU-145 prostate): 60.5 µM
- TGI (DU-145 prostate): > 100 µM
- GI50 (SN12C renal): > 100 µM
- TGI (SN12C renal): > 100 µM
- GI50 (K-562 leukemia): 42.5 µM
- TGI (K-562 leukemia): > 100 µM
- GI50 (EKVX NSCLC): 95 µM
- TGI (EKVX NSCLC): > 100 µM

Compound: O=c1cc(N=Nc2ccc(Cl)c(Cl)c2)[nH]c(=O)[nH]1
- TGI (ACHN renal): 2.98 µM
- TGI (SW-620 colon): 3.26 µM
- TGI (PC-3 prostate): 13.6 µM
- TGI (NCI-H522 lung): 2.81 µM
- TGI (A498 renal): 28.8 µM
- TGI (NCI-H460 lung): 7.46 µM
- TGI (IGROV1 ovarian): 4.31 µM
- TGI (MDA-MB-231 breast): 3.38 µM
- TGI (SK-MEL-2 melanoma): 12 µM
- TGI (HOP-92 NSCLC): 3.07 µM
- TGI (KM12 colon): 6.15 µM
- TGI (HCT-116 colon): 3.21 µM
- TGI (M14 melanoma): 4.08 µM
- TGI (COLO 205 colon): 3.36 µM
- TGI (HL-60(TB) leukemia): 0.941 µM
- TGI (TK-10 renal): 3.18 µM
- TGI (CAKI-1 renal): 5.56 µM
- TGI (BT-549 breast): 4.77 µM
- TGI (SR leukemia): 1.54 µM
- TGI (LOX IMVI melanoma): 3.36 µM
- TGI (SK-OV-3 ovarian): 30 µM
- TGI (SK-MEL-28 melanoma): 3.3 µM
- TGI (OVCAR-5 ovarian): 11.2 µM
- TGI (HS 578T breast): 13.1 µM
- TGI (SF-295 CNS): 32.5 µM
- TGI (OVCAR-8 ovarian): 4.89 µM
- TGI (MALME-3M melanoma): 4.53 µM
- TGI (RPMI-8226 leukemia): 5.6 µM
- TGI (MCF7 breast): 3.99 µM
- TGI (HT29 colon): 3.13 µM
- TGI (RXF 393 renal): 3.17 µM
- TGI (MDA-N): 3.36 µM
- TGI (UACC-62 melanoma): 4.61 µM
- TGI (OVCAR-4 ovarian): 8.08 µM
- TGI (SK-MEL-5 melanoma): 10.2 µM
- TGI (HOP-62 NSCLC): 19.2 µM
- TGI (NCI-H23 lung): 10.7 µM
- TGI (SF-539 CNS): 8.04 µM
- TGI (OVCAR-3 ovarian): 5.41 µM
- TGI (786-0 renal): 2.86 µM
- TGI (HCC-2998 colon): 6.35 µM
- TGI (MDA-MB-435): 17.6 µM
- TGI (SNB-19 CNS): 26.6 µM
- TGI (U251 CNS): 3.65 µM
- TGI (SNB-75 CNS): 22.5 µM
- TGI (MOLT-4 leukemia): 6.48 µM
- TGI (A549 NSCLC): 42.3 µM
- TGI (UO-31 renal): 4.93 µM
- TGI (NCI/ADR-RES ovarian): 3.93 µM
- TGI (SF-268 CNS): 7.57 µM
- TGI (NCI-H226 lung): 33.2 µM
- TGI (HCT-15 colon): 3.31 µM
- TGI (CCRF-CEM leukemia): 0.495 µM
- TGI (UACC-257 melanoma): 6.15 µM
- TGI (DU-145 prostate): 9.19 µM
- TGI (SN12C renal): 4.79 µM
- TGI (K-562 leukemia): 4.02 µM
- TGI (EKVX NSCLC): 3.49 µM

Compound: CN(C)c1ccc(/C=C2\N=C(N/N=C/c3ccccc3O)NC2=O)cc1
- TGI (A498 renal): 61.7 µM
- TGI (HOP-92 NSCLC): 59.7 µM
- TGI (COLO 205 colon): > 100 µM
- TGI (TK-10 renal): 59.4 µM
- TGI (BT-549 breast): > 100 µM
- TGI (SK-MEL-28 melanoma): 62.7 µM
- TGI (OVCAR-5 ovarian): > 100 µM
- TGI (HS 578T breast): > 100 µM
- TGI (RPMI-8226 leukemia): > 100 µM
- TGI (HT29 colon): > 100 µM
- TGI (RXF 393 renal): 55.9 µM
- TGI (MDA-N): > 100 µM
- TGI (HOP-62 NSCLC): 53 µM
- TGI (HCC-2998 colon): > 100 µM
- TGI (MDA-MB-435): > 100 µM
- TGI (SNB-19 CNS): > 100 µM
- TGI (SNB-75 CNS): 89.7 µM
- TGI (SF-268 CNS): > 100 µM
- TGI (NCI-H226 lung): 41.1 µM
- TGI (DU-145 prostate): > 100 µM
- TGI (SN12C renal): > 100 µM
